# pEC50: −log10 of the molar value.
# Legend:
# ΔF508-CFTR [1] = biological target: T1, ΔF508-CFTR (Homo sapiens, UniProt P13569, DEL508-508); experiment: CFTR cell surface levels using HRP-tagged ΔF508-CFTR expressing CFBE cells, in the presence of a co-corrector; assay type: cell-based; conditions: HRP-tagged ΔF508-CFTR CFBE cells, in the presence of 3 μM co-corrector; for pEC50: read-out: EC50
# T1 construct: host or cells: CFBE41o-, doxycycline-inducible
# Summary of the method: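 Chemiluminescent read-out of surface HRP (15 min, dark) after PBS washes. Activity is normalized as 100×(sample−DMSO)/(3 μM co-corrector alone−DMSO).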
# ΔF508-CFTR [2] = biological target: T1, ΔF508-CFTR; experiment: CFTR cell surface levels using HRP-tagged ΔF508-CFTR expressing CFBE cells, intrinsic corrector capacity; assay type: cell-based; parameters: % Activation: concentration or dose not given beside the values; conditions: HRP-tagged ΔF508-CFTR expressing CFBE41o- cells, compound alone (intrinsic corrector capacity), 20 hours at 33° C.; for pEC50: read-out: EC50
# Summary of the method: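 Read-out: chemiluminescent HRP activity of ECL4-HRP-tagged ΔF508-CFTR at the cell surface, 15 min substrate in dark. Normalized as 100×(sample−DMSO)/(positive control−DMSO).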
# T1 sequence (P13569 with tags, fused parts or gaps DEL508-508): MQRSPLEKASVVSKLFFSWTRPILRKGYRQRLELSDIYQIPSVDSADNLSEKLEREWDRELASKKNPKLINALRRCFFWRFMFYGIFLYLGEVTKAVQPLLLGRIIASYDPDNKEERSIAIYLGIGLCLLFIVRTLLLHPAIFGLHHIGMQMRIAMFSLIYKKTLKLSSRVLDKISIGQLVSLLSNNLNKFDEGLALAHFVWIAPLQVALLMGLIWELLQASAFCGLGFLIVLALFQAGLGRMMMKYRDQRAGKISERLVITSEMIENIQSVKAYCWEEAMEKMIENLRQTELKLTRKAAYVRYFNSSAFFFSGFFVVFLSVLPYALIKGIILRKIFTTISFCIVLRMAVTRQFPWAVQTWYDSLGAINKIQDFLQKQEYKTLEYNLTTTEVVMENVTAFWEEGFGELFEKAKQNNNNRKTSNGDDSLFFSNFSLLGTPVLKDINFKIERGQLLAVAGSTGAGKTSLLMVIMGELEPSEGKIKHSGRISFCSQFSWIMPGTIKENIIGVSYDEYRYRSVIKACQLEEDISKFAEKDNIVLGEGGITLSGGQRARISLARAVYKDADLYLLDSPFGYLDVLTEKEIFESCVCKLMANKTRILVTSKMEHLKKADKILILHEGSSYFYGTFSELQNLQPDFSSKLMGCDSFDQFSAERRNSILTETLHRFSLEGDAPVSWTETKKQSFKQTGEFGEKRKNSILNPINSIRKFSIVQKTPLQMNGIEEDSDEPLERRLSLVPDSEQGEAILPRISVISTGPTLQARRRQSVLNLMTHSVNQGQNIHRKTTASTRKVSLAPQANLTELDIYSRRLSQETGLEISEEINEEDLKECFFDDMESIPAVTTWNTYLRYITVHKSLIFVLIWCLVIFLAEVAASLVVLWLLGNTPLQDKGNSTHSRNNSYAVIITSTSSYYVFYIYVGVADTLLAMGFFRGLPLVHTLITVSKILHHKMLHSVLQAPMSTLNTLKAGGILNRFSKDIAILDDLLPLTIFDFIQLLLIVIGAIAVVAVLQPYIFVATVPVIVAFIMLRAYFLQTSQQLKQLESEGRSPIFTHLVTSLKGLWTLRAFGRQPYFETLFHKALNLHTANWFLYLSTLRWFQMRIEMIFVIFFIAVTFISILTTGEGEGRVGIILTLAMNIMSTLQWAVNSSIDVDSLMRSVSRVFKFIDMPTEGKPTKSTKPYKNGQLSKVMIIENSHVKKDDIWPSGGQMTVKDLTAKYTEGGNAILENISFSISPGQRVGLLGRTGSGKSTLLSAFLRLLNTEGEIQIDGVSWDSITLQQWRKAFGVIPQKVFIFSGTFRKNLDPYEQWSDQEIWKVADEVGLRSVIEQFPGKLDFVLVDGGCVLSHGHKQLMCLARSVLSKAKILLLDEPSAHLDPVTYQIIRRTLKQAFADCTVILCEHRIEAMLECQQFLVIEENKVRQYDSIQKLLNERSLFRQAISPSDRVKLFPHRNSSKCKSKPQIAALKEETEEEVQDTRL
Structure (SMILES),% Activation (ΔF508-CFTR [1]) [%],pEC50 (ΔF508-CFTR [1]),% Activation (ΔF508-CFTR [2]) [%],pEC50 (ΔF508-CFTR [2])
"CC(C)c1nn(-c2cccc(N3CCC(F)C3)c2)c2nc(C(=O)NS(C)(=O)=O)cc(-c3ccc(N4CCOCC4)cc3)c12 (stereo not shown) [Compound 46, 1-[3-(3-fluoropyrrolidin-1-yl)phenyl]-N-(methanesulfonyl)-4-[4-(morpholin-4-yl)phenyl]-3-(propan-2-yl)-1H-pyrazolo[3,4-b]pyridine-6-carboxamide]",643.27,6.35,457.3,6.15
"CC(C)c1nn(-c2ccc(F)c(F)c2)c2nc(C(=O)NS(C)(=O)=O)cc(-c3ccc(N4CCOCC4)cc3)c12 [Compound 127, 1-(3,4-difluorophenyl)-N-(methanesulfonyl)-4-[4-(morpholin-4-yl)phenyl]-3-(propan-2-yl)-1H-pyrazolo[3,4-b]pyridine-6-carboxamide]",449.1,6.60,301.45,6.29
"CCS(=O)(=O)NC(=O)c1cc(-c2ccc(N(C)C3CCOCC3)nc2)c2c(C(C)C)nn(C3CCCCC3)c2n1 [Compound 90, 1-cyclohexyl-N-(ethanesulfonyl)-4-{6-[methyl(oxan-4-yl)amino]pyridin-3-yl}-3-(propan-2-yl)-1H-pyrazolo[3,4-b]pyridine-6-carboxamide]",384.95,6.41,163.75,6.31
"CC(C)c1nn(-c2cccc(N(C)C)c2)c2nc(C(=O)NS(C)(=O)=O)cc(N3CCCCC3)c12 [Compound 157, 1-[3-(dimethylamino)phenyl]-N-(methanesulfonyl)-4-(piperidin-1-yl)-3-(propan-2-yl)-1H-pyrazolo[3,4-b]pyridine-6-carboxamide]",542.17,6.45,327.8,6.34
"CC(C)c1nn(C2CCCCC2)c2nc(C(=O)NS(C)(=O)=O)cc(-c3cnc(N(C)C4CCOCC4)nc3)c12 [Compound 123, 1-cyclohexyl-N-(methanesulfonyl)-4-{2-[methyl(oxan-4-yl)amino]pyrimidin-5-yl}-3-(propan-2-yl)-1H-pyrazolo[3,4-b]pyridine-6-carboxamide]",365.8,6.62,153.8,6.37
"CCS(=O)(=O)NC(=O)c1cc(-c2ccc(N3CCOCC3)cc2)c2c(C(C)C)nn(C3CCCOC3)c2n1 (stereo not shown) [Compound 40, N-(ethanesulfonyl)-4-[4-(morpholin-4-yl)phenyl]-1-(oxan-3-yl)-3-(propan-2-yl)-1H-pyrazolo[3,4-b]pyridine-6-carboxamide]",373.43,6.37,147.1,6.35
"Cc1nn(-c2cccc(C(F)(F)F)c2)c2nc(C(=O)NS(C)(=O)=O)cc(-c3ccc(N4CCOCC4)cc3)c12 [Compound 8, N-(methanesulfonyl)-3-methyl-4-[4-(morpholin-4-yl)phenyl]-1-[3-(trifluoromethyl)phenyl]-1H-pyrazolo[3,4-b]pyridine-6-carboxamide]",441.85,6.07,270.6,6.05
"Cc1cccc(-n2nc(C3CCC3)c3c(N4CCC(N5CCOCC5)CC4)cc(C(=O)NS(=O)(=O)N(C)C)nc32)c1 [Compound 498, 3-cyclobutyl-N-(dimethylsulfamoyl)-1-(3-methylphenyl)-4-[4-(morpholin-4-yl)piperidin-1-yl]-1H-pyrazolo[3,4-b]pyridine-6-carboxamide]",456.3,7.02,288.1,6.84
"CO[C@H]1CC[C@H](Oc2cc(C(=O)NS(C)(=O)=O)nc3c2c(C2CCC2)nn3-c2ccccc2)CC1 [Compound 212, 3-cyclobutyl-N-(methanesulfonyl)-4-[(trans-4-methoxycyclohexyl)oxy]-1-phenyl-1H-pyrazolo[3,4-b]pyridine-6-carboxamide]",290.43,6.49,114.63,6.21
"O=C(NS(=O)(=O)N1CC(F)(F)C1)c1cc(N2CCC(N3CCOCC3)CC2)c2c(C3CCC3)nn(-c3ccc(F)cc3)c2n1 [Compound 580, 3-cyclobutyl-N-(3,3-difluoroazetidine-1-sulfonyl)-1-(4-fluorophenyl)-4-[4-(morpholin-4-yl)piperidin-1-yl]-1H-pyrazolo[3,4-b]pyridine-6-carboxamide]",387.45,7.28,201.52,6.88
"CS(=O)(=O)NC(=O)c1cc(N2CCC(N3CCC(C#N)C3)CC2)c2c(C3CCC3)nn(-c3ccc(F)cc3)c2n1 (stereo not shown) [Compound 565, 4-[4-(3-cyanopyrrolidin-1-yl)piperidin-1-yl]-3-cyclobutyl-1-(4-fluorophenyl)-N-(methanesulfonyl)-1H-pyrazolo[3,4-b]pyridine-6-carboxamide]",637.53,7.16,373.15,6.74
"COCC1CCN(c2cc(C(=O)NS(=O)(=O)CC(C)C)nc3c2c(C2CCC2)nn3-c2ccccc2)CC1 [Compound 375, 3-cyclobutyl-4-[4-(methoxymethyl)piperidin-1-yl]-N-(2-methylpropane-1-sulfonyl)-1-phenyl-1H-pyrazolo[3,4-b]pyridine-6-carboxamide]",546.75,6.62,321.6,6.24
"Cc1nn(-c2cc(F)cc(F)c2)c2nc(C(=O)NS(C)(=O)=O)cc(-c3ccc(N4CCOCC4)cc3)c12 [Compound 23, 1-(3,5-difluorophenyl)-N-(methanesulfonyl)-3-methyl-4-[4-(morpholin-4-yl)phenyl]-1H-pyrazolo[3,4-b]pyridine-6-carboxamide]",468.85,6.24,287.3,6.05
"COCC1CCN(Cc2cc(C(=O)NS(=O)(=O)N(C)C)nc3c2c(C2CCC2)nn3-c2ccc(F)cc2)CC1 [Compound 521, 3-cyclobutyl-N-(dimethylsulfamoyl)-1-(4-fluorophenyl)-4-{[4-(methoxymethyl)piperidin-1-yl]methyl}-1H-pyrazolo[3,4-b]pyridine-6-carboxamide]",217.3,6.15,31.93,–
"CC(C)Oc1nn(C2CCCCC2)c2nc(C(=O)NS(=O)(=O)N(C)C)cc(-c3ccc(CN4CCCC4)cc3)c12 [Compound 444, 1-cyclohexyl-N-(dimethylsulfamoyl)-3-[(propan-2-yl)oxy]-4-{4-[(pyrrolidin-1-yl)methyl]phenyl}-1H-pyrazolo[3,4-b]pyridine-6-carboxamide]",361.3,6.63,162.5,6.46
"Cc1nn(-c2ccccc2)c2nc(C(=O)NS(C)(=O)=O)cc(-c3ccc(N(C)C)cc3)c12 [Compound 33, 4-[4-(dimethylamino)phenyl]-N-(methanesulfonyl)-3-methyl-1-phenyl-1H-pyrazolo[3,4-b]pyridine-6-carboxamide]",315.6,6.33,109,5.59
"Cc1cc(C)cc(-n2nc(C)c3c(-c4ccc(N5CCOCC5)cc4)cc(C(=O)NS(C)(=O)=O)nc32)c1 [Compound 24, 1-(3,5-dimethylphenyl)-N-(methanesulfonyl)-3-methyl-4-[4-(morpholin-4-yl)phenyl]-1H-pyrazolo[3,4-b]pyridine-6-carboxamide]",380.5,6.13,193.75,6.05
"CCCN(C)S(=O)(=O)NC(=O)c1cc(N2CCC(COC)CC2)c2c(C3CCC3)nn(-c3ccccc3)c2n1 [Compound 391, 3-cyclobutyl-4-[4-(methoxymethyl)piperidin-1-yl]-N-[methyl(propyl)sulfamoyl]-1-phenyl-1H-pyrazolo[3,4-b]pyridine-6-carboxamide]",441.15,7.07,247.7,7.11
"CS(=O)(=O)NC(=O)c1cc(N2CCC(N3CCN(C4CC4)CC3)CC2)c2c(C3CCC3)nn(-c3ccccc3)c2n1 [Compound 556, 3-cyclobutyl-4-[4-(4-cyclopropylpiperazin-1-yl)piperidin-1-yl]-N-(methanesulfonyl)-1-phenyl-1H-pyrazolo[3,4-b]pyridine-6-carboxamide]",595.8,6.87,386,7.19
"CO[C@H]1CC[C@@H](Oc2cc(C(=O)NS(C)(=O)=O)nc3c2c(C2CCC2)nn3-c2ccccc2)CC1 [Compound 211, 3-cyclobutyl-N-(methanesulfonyl)-4-[(cis-4-methoxycyclohexyl)oxy]-1-phenyl-1H-pyrazolo[3,4-b]pyridine-6-carboxamide]",288.3,6.53,114.4,6.22
"CC(C)N1CCC(c2cc(C(=O)NS(=O)(=O)N(C)C)nc3c2c(C2CCC2)nn3-c2ccc(F)cc2)CC1 [Compound 598, 3-cyclobutyl-N-(dimethylsulfamoyl)-1-(4-fluorophenyl)-4-[1-(propan-2-yl)piperidin-4-yl]-1H-pyrazolo[3,4-b]pyridine-6-carboxamide]",153.9,≤ 5.00,28.03,–
